“And” between values parts separate entries of the source, which are not always exact repeats. Equal values may be shown once.
Assays:
isolated human PBMCs = assay: eicosanoid release from A23187-stimulated PBMCs (ELISA); assay type: cell-based; parameters: 6-Keto PGF1a / 12-HETE: unit not given here; conditions: 5 µM; for LTB4 level, PBMCs / PGE2 level, PBMCs / TxB2 level, PBMCs: A23187, individual replicate
Method: In PBMCs, the calcium ionophore A23187 stimulated the release of PGE2, TXB2, LTB4, 6-keto prostaglandin F1α (PGF1α), and 12-HETE.
PBMCs were isolated from buffy coats using Lymphoprep as described by the manufacturer ([…] Technologies, Vancouver, Canada). Red blood cells were lysed and removed using RBC lysis buffer (Roche, Basel, Switzerland) and the remaining cells were resuspended in 10 mL of RPMI-1640 supplemented with 5% FBS. The TC20 automated cell counter (BIO-RAD, Hercules, California, USA) was used to count the number of cells and check the viability by staining with trypan blue (0.4%) (NanoEnTek, Waltham, MA, USA). For experiments, 5 × 10^5 cells were seeded in 0.5 mL in 24 well plates with RPMI medium supplemented with 5% FBS, 0.3 mg/mL glutamine, and 0.1 mg/mL gentamicin. Cells were preincubated with inhibitors for 2 h before incubating with 30 µM Ca^2+ ionophore A23187 for 15 min to activate cPLA2α. After incubation, the supernatant was obtained by centrifugation at 5992 × g for 10 min at 4° and stored at −80 °C until assayed for PGE2, LTB4, TxB2, 6-Keto PGF1α, and 12S-HETE using enzyme-linked immunosorbent assays (ELISAs) (Cayman #514435, Cayman #10009292, Cayman #501020, Cayman #15210, and Enzo Lifesciences #ADI-900-050). After an overnight hybridization, the enzymatic conversion of substrate was read at OD420 nm using a Cytation 5 multimode platereader (Biotek Instruments, Winooski, VT, USA). Standard curves fit using 4-parameter logistic regression in myassays.com were used to calculate eicosanoid concentrations.

whole blood = assay: eicosanoid release from LPS-stimulated whole blood; assay type: cell-based, human; parameters: LTB4 / 5-HETE / 11,12-EET / 12-HETE: unit not given here; conditions: for 15-HETE level, whole blood / PGE2 level, whole blood / TxB2 level, whole blood: individual replicate
Source text: In whole blood, bacterial lipopolysaccharide (LPS) stimulated the release of PGE2, thromboxane B2 (TXB2), and 15-hydroxyeicosatetraenoic acid (HETE). […] The levels of leukotriene B4 (LTB4), 12-HETE, 5-HETE and 11,12-epoxyeicosatrienoic acid (EET) were not affected by LPS stimulation but increased when exogenous AA was included, irrespective of the presence of GK420 (Fig. S1a).
Fig. 3 Ex vivo suppression of eicosanoid production by GK420. a Eicosanoid levels (pmol/mL) in the plasma of whole blood pretreated with vehicle (DMSO), 3, 10 or 30 µM GK420,) 10 µM arachidonyl trifluoromethyl ketone (ATK), or 1 μM indomethacin (Indo) before stimulation with 1 µg/mL LPS for 24 h. […] All box and whisker plots show the mean (center line), stdev (box), and min and max values (whiskers) from 4 biological replicates. P-values were determined using RM-one way ANOVA with Dunnett’s correction for multiple comparisons.
Aliquots of 0.4 mL of heparinized whole blood were mixed with 1.6 mL of serum-free RPMI cultivation medium with- or without indomethacin (# I7378, Sigma-Aldrich), GK420, or arachidonyl trifluoromethyl ketone (ATK) (Cayman #62120), prior to the addition of lipopolysaccharides (LPS) (1 μg/mL) to activate the cPLA2α enzyme (LPS was from E. coli 026:B6 γ-irradiated, #L2654, Sigma-Aldrich). Exogenous arachidonic acid (5–10 µM) (#3555, Sigma-Aldrich) was added after 23.5 h, for the final 30 mins of the 24 h stimulation. Following treatment (24 h, 37 °C, 5% CO2), the diluted blood was centrifuged (5992 × g for 10 min at 4 °C) to isolate the plasma from the cell fraction. Plasma samples were stored at −80 °C until analysis. Samples were analyzed at the Lipid Maps Consortium, UCSD according to the standard methods. 200 µL of sample was subjected to solid phase extraction of the eicosanoids using the StrataX solid phase extraction columns from Phenomenex and analyzed by UHPLC-MS/MS using full standards mix.

CCRF-CEM cells [1] = assay: intracellular ROS, ROS-red staining and flow cytometry, CCRF-CEM; assay type: cell-based, human; conditions: CCRF-CEM, 8 µM, 4 h
Method: (§1) Data are the mean ± stdev of 3 biological replicates. […] Data are the mean ± stdev of 3 biological replicates.
(§2) Rather, when combined with AVX420, exogenous AA augmented cell death (Fig. 6e). […] The response occurred within 1 h, peaked at 8–12 h, and preceded the loss of cell viability (Fig. S9a, b).
(§3) After treatment, cells were stained with cellular ROS Assay Kit (Cat. No. ab186029; Abcam, Cambridge, United Kingdom) following the manufacturer’s instructions, and ROS-positive cells were quantified by flow cytometry using either the NovoCyte flow cytometer, and Novoexpress Software v1.5.0 from Agilent Technologies (Santa Clara, USA) or the CytoFLEX flow cytometer and CytExpert analysis software v 2.5 from Beckman Coulter (California, United States). An example showing the gating strategy used to assess ROS-Red staining is found in Fig. S9d.
Figure S9. Intracellular ROS accumulation and cell death. a. Time dependency of the in-crease in iROS following treatment with AVX420 in CCRF-CEM cells as measured by ROS-red stain-ing. Data are the mean ±stdev from ≥2 biological replicates b. […]
±stdev of ≥2 biological replicates c. intracellular ROS measurements in CCRF-CEM cells treated with 0.5 µM AVX420 in the presence of 20 µM arachidonic acid (AA) or 5 µM liproxstatin (Lip) for 4 hours. Data are the mean ± stdev of 2 biological replicates. d. […]
analysis of ROS Red staining by flow cytometry. (i) Gating of live cells using FSC-H versus SSC-H.
(ii) Gating based on ROS Deep Red staining under control conditions and after treatment with (iii) […]
(1 picture or pasted object on this page, not shown here)

CCRF-CEM cells [2] = assay: cell viability, CTG assay, CCRF-CEM; conditions: for viability signal, raw values: Figure 6e
Method: Data are the mean ± stdev of 3 biological replicates. c Viability of healthy T-cells measured by propidium iodide (PI) exclusion. Data are the mean ± stdev of 8 biological replicates for 1–16 µM AVX420, 5 for 32 µM AVX420 and 2 for 0.5 µM Staurosporine (Stau). d Cell viability measured by CTG assay in cells preincubated with 2.5 mM glutathione (GSH) or 2.5 mM N-acetyl cysteine (NAC) for 30 min before addition of 0.5 or 1 µM AVX420, 0.06 µM RSL-3, or 0.06 µM ML-210 for 24 h. Data are the mean ± stdev of 3 biological replicates. P-values were determined by one-way ANOVA with Dunnett’s correction for multiple testing and **** indicates P < 0.0001. e Cell viability measured by CTG assay. CCRF-CEM or Jurkat cells were co-treated with 0.5 µM AVX420 and either arachidonic acid (AA) at concentrations ranging from 1 to 100 µM or a mixture of 9 eicosanoids: 6-keto prostaglandin F1α, Thromboxane B2, prostaglandin F2α, prostaglandin E2, prostaglandin D2, 12(S)-HHTrE, 15(S)-HETE,12(S)-HETE, 5(S)-HETE at a final concentration of 2 ng/mL each (EIC-mix) for 24 h. Data are the mean ± stdev of 3 biological replicates. P-values were determined by two-way ANOVA with Sidak’s correction for multiple comparisons. f Proportion of intracellular ROS-positive cells measured by ROS-red staining and flow cytometry. Cells were treated with indicated concentrations of AVX420 (µM), 1 mM H2O2, 1 µM RSL-3, or 1 µM doxorubicin (dox) for 4 h. Data are the mean ± stdev of 3 biological replicates. g Intracellular ROS measurements in CCRF-CEM cells treated with AVX420 (0.5 µM), AVX002 (8 µM), or AACOCF3 (8 µM) for 4 h.
All cell lines were confirmed to be free of mycoplasma contamination. The cell lines were not authenticated. MV-4-11 were cultured in Iscove’s Modified Dulbecco’s Medium (Sigma, I3390). CCRF-CEM, Jurkat E6.1, and HL-60 cells were cultured in RPMI 1640 Medium RPMI-1640 medium (Sigma, R5886).

Jurkat E6.1 cells [3] = assay: cell viability, CTG assay, Jurkat E6.1; assay type: cell-based, human; conditions: for viability signal, raw values: Figure 6e
Source text: as §1
Bjørn Tore Gjertsen (University of Bergen, Norway). […] The cell lines were not authenticated.

Jurkat E6.1 cells [4] = assay: intracellular ROS, ROS-red staining and flow cytometry, Jurkat E6.1; assay type: cell-based, human; parameters: ROS Negative Cells / ROS Negative Cells (Figure S9 a) / ROS Negative Cells (Figure S9c): unit not given here; conditions: AA 20 µM; rep1, rep2
Method: as §1, §2, §3

COc1ccc2cc([C@H](C)C(=O)O)ccc2c1 [Naproxen, naproxen, reference compound]
LTB4 level, PBMCs (isolated human PBMCs): 580.9 pg/mL and 678 pg/mL and 1105.1 pg/mL and 392.2 pg/mL
PGE2 level, PBMCs (isolated human PBMCs): 99.6 pg/mL and 53.1 pg/mL and 27.7 pg/mL and 49.6 pg/mL
TxB2 level, PBMCs (isolated human PBMCs): 2252.6 pg/mL and 716 pg/mL and 281.3 pg/mL and 1975.1 pg/mL

CC(Cc1ccc(O)c(O)c1)C(C)Cc1ccc(O)c(O)c1 (stereo not shown) [NDGA, nordihydroguaiaretic acid, reference compound]
LTB4 level, PBMCs (isolated human PBMCs): 125.8 pg/mL and 134 pg/mL and 192.1 pg/mL and 116.5 pg/mL
PGE2 level, PBMCs (isolated human PBMCs): 307.5 pg/mL and 191.3 pg/mL and 70.7 pg/mL and 334.8 pg/mL
TxB2 level, PBMCs (isolated human PBMCs): 14617 pg/mL and 11007 pg/mL and 1627.4 pg/mL and 14685.3 pg/mL
6-Keto PGF1a (isolated human PBMCs; A23187 stimulated): 23.4 and 36.1
12-HETE (isolated human PBMCs; A23187 stimulated): 69724.1 and 75249.5 and 44247.8

CCCCC/C=C\C/C=C\C/C=C\C/C=C\CCCC(=O)C(F)(F)F [ATK, arachidonyl trifluoromethyl ketone]
5-HETE (whole blood; 10 uM + LPS + AA): 62.15 and 48.84 and 43.16 and 63.64
11,12-EET (whole blood; 10 uM + LPS + AA): 12.43 and 12.11 and 11.23 and 10.37
12-HETE (whole blood; 10 uM + LPS + AA): 131.5 and 102.1 and 99.1 and 71.1
LTB4 (whole blood; 10 uM + LPS + AA): 0.7 and 0.6 and 0.8 and 0.5
15-HETE level, whole blood (whole blood; 10 uM + LPS + AA): 74.26 pmol/mL and 68.85 pmol/mL and 74.36 pmol/mL and 63.52 pmol/mL
PGE2 level, whole blood (whole blood; 10 uM + LPS + AA): 16.3 pmol/mL and 19.3 pmol/mL and 11.3 pmol/mL and 11.2 pmol/mL
TxB2 level, whole blood (whole blood; 10 uM + LPS + AA): 13.1 pmol/mL and 35.6 pmol/mL and 22.8 pmol/mL and 21.1 pmol/mL
15-HETE level, whole blood (whole blood; 10 uM + LPS): 0.26 pmol/mL and 1.13 pmol/mL and 0.31 pmol/mL and 0.48 pmol/mL
PGE2 level, whole blood (whole blood; 10 uM + LPS): 0.1 pmol/mL and 2.4 pmol/mL and 0.5 pmol/mL and 1.1 pmol/mL
TxB2 level, whole blood (whole blood; 10 uM + LPS): 1.2 pmol/mL and 9.9 pmol/mL and 2.1 pmol/mL and 3.4 pmol/mL
intracellular ROS (iROS) (CCRF-CEM cells [1]): increased iROS

Cc1ccc(-c2cc(C(F)(F)F)nn2-c2ccc(S(N)(=O)=O)cc2)cc1 [Celecoxib, celecoxib, reference compound]
LTB4 level, PBMCs (isolated human PBMCs): 120.7 pg/mL and 156.9 pg/mL and 348.2 pg/mL and 111.7 pg/mL
PGE2 level, PBMCs (isolated human PBMCs): 146.1 pg/mL and 36.8 pg/mL and 25.1 pg/mL and 59.9 pg/mL
TxB2 level, PBMCs (isolated human PBMCs): 2358.3 pg/mL and 690.2 pg/mL and 212.9 pg/mL and 1753.1 pg/mL

COc1ccc2c(c1)c(CC(=O)O)c(C)n2C(=O)c1ccc(Cl)cc1 [Indo, indomethacin]
5-HETE (whole blood; 1 uM + LPS + AA): 68.97 and 43.93 and 45.12 and 44.17
11,12-EET (whole blood; 1 uM + LPS + AA): 9.56 and 11.87 and 10.26 and 11.6
12-HETE (whole blood; 1 uM + LPS + AA): 64.2 and 109.5 and 89.5 and 60.3
LTB4 (whole blood; 1 uM + LPS + AA): 0.4 and 0.7 and 0.5
15-HETE level, whole blood (whole blood; 1 uM + LPS + AA): 61.7 pmol/mL and 75.64 pmol/mL and 71.47 pmol/mL and 74.74 pmol/mL
PGE2 level, whole blood (whole blood; 1 uM + LPS + AA): 11.3 pmol/mL and 12.8 pmol/mL and 10.1 pmol/mL and 11.1 pmol/mL
TxB2 level, whole blood (whole blood; 1 uM + LPS + AA): 1.2 pmol/ml (2×) and 1.6 pmol/ml and 1 pmol/ml
15-HETE level, whole blood (whole blood; 1 uM + LPS): 0.16 pmol/mL and 0.77 pmol/mL and 0.18 pmol/mL and 0.15 pmol/mL
PGE2 level, whole blood (whole blood; 1 uM + LPS): 0.05 pmol/mL
TxB2 level, whole blood (whole blood; 1 uM + LPS): 0.05 pmol/ml (3×) and 0.1 pmol/ml
production of PGE2 and TXB2 (whole blood; whole blood, LPS, in the absence and presence of exogenous free AA): suppressed the production

COC(=O)c1ccc([C@@H]2c3[nH]c4ccccc4c3C[C@@H](C(=O)OC)N2C(=O)CCl)cc1 [RSL-3]
cell viability (Control = 100) (CCRF-CEM cells [2]; 0.06 µM, VEH): 29 and 32 and 36
cell viability (Control = 100) (Jurkat E6.1 cells [3]; Jurkat cells, 0.06 µM, VEH): 40 and 34 and 26

CCCCC/C=C\C/C=C\C/C=C\C/C=C\CCCC(=O)O [AA]
viability signal, raw values (CCRF-CEM cells [2]; AA-1, CTRL (no AVX420)): 846644,033333333 and 824265,666666667 and 673546,5
viability signal, raw values (CCRF-CEM cells [2]; AA-5, CTRL (no AVX420)): 927085,7 and 753657,333333333 and 655816,5
viability signal, raw values (CCRF-CEM cells [2]; AA-10, CTRL (no AVX420)): 862846,7 and 802148,333333333 and 667006,5
viability signal, raw values (CCRF-CEM cells [2]; AA-20, CTRL (no AVX420)): 903682,366666667 and 709873,666666667 and 638998,5
viability signal, raw values (CCRF-CEM cells [2]; AA-100, CTRL (no AVX420)): 925589,000333333 and 600588 and 592437,5
ROS Negative Cells (Figure S9c) (Jurkat E6.1 cells [4]): 97 and 95
ROS Positive Cells (Figure S9c) (Jurkat E6.1 cells [4]): 3 and 5
viability signal, raw values (Jurkat E6.1 cells [3]; Jurkat E6.1, AA-1, CTRL (no AVX420)): 945477,333333333 and 910583,466666667 and 794162,5
viability signal, raw values (Jurkat E6.1 cells [3]; Jurkat E6.1, AA-5, CTRL (no AVX420)): 896908,333333333 and 842500,133333333 and 777643
viability signal, raw values (Jurkat E6.1 cells [3]; Jurkat E6.1, AA-10, CTRL (no AVX420)): 858625 and 837920,133333333 and 768078,5
viability signal, raw values (Jurkat E6.1 cells [3]; Jurkat E6.1, AA-20, CTRL (no AVX420)): 835050 and 861305,466666667 and 719180

— publication PMC11696576, “Next generation thiazolyl ketone inhibitors of cytosolic phospholipase A2 α for targeted cancer therapy” (Nature Communications, 2025)
